The term clearance denotes a measure of how efficiently the substance is removed, as volume per time. Usually half-life stands for how long it takes for the measured level to halve.

The results in this text go back to US12673104B2, “Cleavable polymer drug conjugates” (RS ARASTIRMA EGITIM DANISMANLIK ILAC SANAYI TICARET ANONIM …, priority 2016, dated 2026).

The nature of the series: Pharmacokinetic study (plasma total DTX). It is filed as in vivo. Conditions: total DTX in plasma. The procedure:
PEGMEMA-DTX conjugates having 50 kDa and 85 kDa molecular weight were subjected to pharmacokinetic testing and its pharmacokinetic profile was compared with that of free DTX.
Pharmacokinetic parameters for total DTX were calculated using the plasma total DTX concentration values of polymer drug conjugates and free DTX. Half-life, volume of distribution (VDβ), clearance (CL), and total area under the curve (AUC total) were calculated.
In order to provide similarity the HPMA-GFLG-DTX polymer was prepared without RGDfK targeting group.

On to `CC(=O)O[C@@]12CO[C@@H]1C[C@H](O)[C@@]1(C)C(=O)[C@H](O)C3=C(C)[C@@H](OC(=O)[C@H](O)[C@@H](NC(=O)OC(C)(C)C)c4ccccc4)C[C@@](O)([C@@H](OC(=O)c4ccccc4)[C@H]21)C3(C)C` [Free DTX, Docetaxel], for which the AUC total stood at 10000 ± 3000 ng·h/mL. For the same compound, the clearance (read-out: CL (clearance) (converted)) was 2.34 mL/min. Also, the half-life (read-out: Half Life (β) (converted)) was 3.12 ± 0.88 h. Also, the Vd (read-out: VDβ (volume of distribution)) amounted to 0.664 ± 0.258 L.
